Assay results from patent EP0931078B1, “NOVEL TRICYCLIC PIPERIDINYL COMPOUNDS USEFUL AS INHIBITORS OF FARNESYL-PROTEIN TRANSFERASE” (SCHERING CORPORATION, priority 1996, dated 1998).
Read-outs that look alike come from different tables or passages of the source.

Biological target: T1, partially purified rat brain famesyl protein transferase (FPT) (Rattus norvegicus, UniProt Q02293+Q04631)
T1 construct: partially purified rat brain famesyl protein transferase (FPT); from tissue; host or cells: rat brain
Assay: In vitro enzyme assay: inhibition of Ras-CVLS farnesylation by farnesyl protein transferase (FPT)
Assay type: biochemical
Method: • 1. In vitro enzyme assays: FPT IC50 (inhibition of famesyl protein transferase, in vitro enzyme assay) are determined by the methods disclosed in […] or WO 95/10516. […] Cell-based assay. COS IC50 values refer to the COS cells activity inhibition of Ras processing, are determined by the methods disclosed in […] or WO 95/10516.

T1 sequence (Q02293 whole entry, one chain of several): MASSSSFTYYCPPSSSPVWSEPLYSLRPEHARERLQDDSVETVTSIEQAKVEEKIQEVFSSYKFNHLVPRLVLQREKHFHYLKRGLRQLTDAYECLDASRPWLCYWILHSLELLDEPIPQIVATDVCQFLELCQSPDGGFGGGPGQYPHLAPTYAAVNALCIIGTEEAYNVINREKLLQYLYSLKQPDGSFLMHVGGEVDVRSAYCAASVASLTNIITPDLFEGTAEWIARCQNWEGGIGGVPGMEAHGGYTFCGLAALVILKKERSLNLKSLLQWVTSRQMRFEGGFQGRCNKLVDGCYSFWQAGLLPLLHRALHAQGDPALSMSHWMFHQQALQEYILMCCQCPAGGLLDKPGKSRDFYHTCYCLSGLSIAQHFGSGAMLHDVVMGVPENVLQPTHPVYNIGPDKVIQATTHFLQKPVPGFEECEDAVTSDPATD

SMILES: O=C(NCCc1ccccn1)C1CCN(C2c3ccc(Cl)cc3CCc3cc(Br)cnc32)CC1 (racemic) [Example 6, 1-(3-Bromo-8-chloro-6,11-dihydro-5H-benzo[5,6]cyclohepta[1,2-b]pyridin-11-yl)-N-(2-pyridiriylethyl)-4-piperidinecarboxamide]
- inhibition at 1.1 µM (read-out: FPT Inhibition): 9%

SMILES: NC(=O)N1CCC(NC(=O)C2CCN(C3c4ccc(Cl)cc4CCc4cc(Br)cnc43)CC2)CC1 (racemic) [Example 7, 1-(3-Bromo-8-chloro-6,11-dihydro-5H-benzo[5,6]cyclohepta[1,2-b]pyridin-11-yl)-N-[4-(N-carboxamidopiperidinyl)]-4-piperidinecarboxamide]
- inhibition at 0.36 µM (@ 0.36 µM): 15%

SMILES: NC(=O)N1CCC(CNC(=O)C2CCN(C3c4ccc(Cl)cc4CCc4cc(Br)cnc43)CC2)CC1 (racemic) [Example 8, 1-(3-Bromo-8-chloro-6,11-dihydro-5H-benzo[5,6]cyclohepta[1,2-b]pyridin-11-yl)-N-[4-(N-carboxamidopiperidinyl)methyl]-4-piperidinecarboxamide]
- inhibition at 1.04 µM (@ 1.04 µM): 41%

SMILES: NCC1CCN(C(=O)C2CCN(C3c4ccc(Cl)cc4CCc4cc(Br)cnc43)CC2)CC1 (racemic) [Example 9 Step B]
- inhibition at 0.38 µM (@ 0.38 µM, read-out: FPT Inhibition): 16%

SMILES: O=C(NCc1cccnc1)C1CCCN(C2c3ccc(Cl)cc3CCc3cc(Br)cnc32)C1 (single isomer, unassigned) [Example 10 Isomer A, 1-(3-Bromo-8-chloro-6,11-dihydro-5H-benzo[5,6]cyclohepta[1,2-b]pyridin-11-yl)-N-(3-pyridinylmethyl)-3-piperidinecarboxamide]
- inhibition at 1.14 µM (read-out: FPT Inhibition): 6.1%

SMILES: O=C(NCc1cccnc1)C1CCCN(C2c3ccc(Cl)cc3CCc3cc(Br)cnc32)C1 (single isomer, unassigned) [Example 10 Isomer B, 1-(3-Bromo-8-chloro-6,11-dihydro-5H-benzo[5,6]cyclohepta[1,2-b]pyridin-11-yl)-N-(3-pyridinylmethyl)-3-piperidinecarboxamide]
- IC50: 0.194 µM

SMILES: O=C(NCc1cccnc1)C1CCCN(C2c3ccc(Cl)cc3CCc3cc(Br)cnc32)C1 (single isomer, unassigned) [Example 10 Isomer C, 1-(3-Bromo-8-chloro-6,11-dihydro-5H-benzo[5,6]cyclohepta[1,2-b]pyridin-11-yl)-N-(3-pyridinylmethyl)-3-piperidinecarboxamide]
- IC50: 0.179 µM

SMILES: O=C(NCc1cccnc1)C1CCCN(C2c3ccc(Cl)cc3CCc3cc(Br)cnc32)C1 (single isomer, unassigned) [Example 10 Isomer D, 1-(3-Bromo-8-chloro-6,11-dihydro-5H-benzo[5,6]cyclohepta[1,2-b]pyridin-11-yl)-N-(3-pyridinylmethyl)-3-piperidinecarboxamide]
- IC50: 0.187 µM

SMILES: O=C(NCc1ccncc1)[C@@H]1CCCCN1C1c2ccc(Cl)cc2CCc2cc(Br)cnc21 (single isomer, unassigned) [Example 12, 1-(3-Bromo-8-chloro-6,11-dihydro-5H-benzo[5,6]cyclohepta[1,2-b]pyridin-11-yl)-N-(4-pyridinylmethyl)-2S-piperidinecarboxamide]
- inhibition at 1.1 µM (@ 1.1 µM, read-out: FPT Inhibition): 18%

SMILES: O=C(NCc1ccncc1)[C@@H]1CCCCN1C1c2ccc(Cl)cc2CCc2cc(Br)cnc21 (single isomer, unassigned) [Example 13, 1-(3-Bromo-8-chloro-6,11-dihydro-5H-benzo[5,6]cyclohepta[1,2-b]pyridin-11-yl)-N-(4-pyridinylmethyl)-2S-piperidinecarboxamide]
- FPT Inhibition (@ 1.1 µM): 21%

SMILES: O=C(NCc1cccnc1)C1CCCN(C2c3ncc(Br)cc3CCc3cc(Cl)cc(Br)c32)C1 (single isomer, unassigned) [Example 17 Isomer A, 1-(3,10-Dibromo-8-chloro-6,11-dihydro-5H-benzo[5,6]cyclohepta[1,2-b]pyridin-11-yl)-N-(3-pyridinylmethyl)-3-piperidinecarboxamide]
- IC50: < 0.0099 µM

SMILES: O=C(NCc1cccnc1)C1CCCN(C2c3ncc(Br)cc3CCc3cc(Cl)cc(Br)c32)C1 (single isomer, unassigned) [Example 17 Isomer B, 1-(3,10-Dibromo-8-chloro-6,11-dihydro-5H-benzo[5,6]cyclohepta[1,2-b]pyridin-11-yl)-N-(3-pyridinylmethyl)-3-piperidinecarboxamide]
- inhibition at 0.1 µM (read-out: FPT Inhibition): 3.4%

SMILES: O=C(NCc1ccc[n+]([O-])c1)[C@@H]1CCCN(C2c3ncc(Br)cc3CCc3cc(Cl)cc(Br)c32)C1 (single isomer, unassigned) [Example 51, 1-(3,10-Dibromo-8-chioro-6,11-dihydro-5H-benzo[5,6]cyclohepta[1,2-b]pyridin-11-yl)-N-(3-pyridinylmethyl)-3-piperidinecarboxamide N1-oxide]
- IC50 (unit printed as uM (Examples 49-54)): 0.1 µM

SMILES: O=C(NCc1ccncc1)[C@H]1CCCCN1C1c2ccc(Cl)cc2CCc2cc(Br)cnc21 (single isomer, unassigned) [Isomer A2 amide]
- FPT Inhibition (@ 1.1 µM): FPT Inhibition = 0% @ 1.1 µM

SMILES: O=C(NCc1ccncc1)[C@H]1CCCCN1C1c2ccc(Cl)cc2CCc2cc(Br)cnc21 (single isomer, unassigned) [Isomer B2 amide]
- FPT Inhibition (@ 1.1 µM): FPT Inhibition = 13% @ 1.1 µM

SMILES: O=C(NCc1cccnc1)C1CCCCN1C1c2ccc(Cl)cc2CCc2cc(Br)cnc21 (single isomer, unassigned) [Isomer C1 amide]
- IC50: 0.3 µM

SMILES: O=C(NCc1cccnc1)[C@H]1CCCCN1C1c2ccc(Cl)cc2CCc2cc(Br)cnc21 (single isomer, unassigned) [Isomer C2 amide]
- FPT Inhibition (@ 0.38 µM): FPT Inhibition =11% @ 0.38 µM

SMILES: O=C(NCc1cccnc1)C1CCCCN1C1c2ccc(Cl)cc2CCc2cc(Br)cnc21 (single isomer, unassigned) [Isomer D1 amide]
- IC50: 0.16 µM

SMILES: O=C(NCc1cccnc1)[C@H]1CCCCN1C1c2ccc(Cl)cc2CCc2cc(Br)cnc21 (single isomer, unassigned) [Isomer D2 amide]
- FPT Inhibition (@ 0.38 µM): FPT Inhibition = 0% @ 0.38 µM

SMILES: O=C(Nc1ccncc1)C1CCN(C2c3ccc(Cl)cc3CCc3cccnc32)CC1 (stereo not shown) [Example 1, 1-[8-Chloro-6,11-dihydro-5H-benzo[5,6]cyclohepta[1,2-b]pyridin-11-yl]-N-(4-pyridinyl)-4-piperidinecarboxamide]
- IC50: 9.24 µM

SMILES: O=C(Nc1ccncc1)C1CCN(C2c3ccc(Cl)cc3CCc3cc(Br)cnc32)CC1 (stereo not shown) [Example 2, 1-(3-Bromo-8-chloro-6,11-dihydro-5H-benzo[5,6]cyclohepta[1,2-b]pyridin-11-yl)-N-(4-pyridinyl)-4-piperidinecarboxamide]
- inhibition at 0.39 µM (read-out: FPT Inhibition): 0%

SMILES: O=C(NCc1ccncc1)C1CCN(C2c3ccc(Cl)cc3CCc3cc(Br)cnc32)CC1 (stereo not shown) [Example 3, 1-(3-Bromo-8-chloro-6,11-dihydro-5H-benzo[5,6]cyclohepta[1,2-b]pyridin-11-yl)-N-(4-pyridinylmethyl)-4-piperidinecarboxamide]
- inhibition at 1.1 µM (read-out: FPT Inhibition): 21%

SMILES: O=C(NCc1cccnc1)C1CCN(C2c3ccc(Cl)cc3CCc3cc(Br)cnc32)CC1 (stereo not shown) [Example 4, 1-(3-Bromo-8-chloro-6,11-dihydro-5H-benzo[5,6]cyclohepta[1,2-b]pyridin-11-yl)-N-(3-pyridinylmethyl)-4-piperidinecarboxamide]
- IC50: 1.3 µM

SMILES: O=C(NCc1ccccn1)C1CCN(C2c3ccc(Cl)cc3CCc3cc(Br)cnc32)CC1 (stereo not shown) [Example 5, 1-(3-Bromo-8-chloro-6,11-dihydro-5H-benzo[5,6]cyclohepta[1,2-b]pyridin-11-yl)-N-(2-pyridinyimethyl)-4-piperidinecarboxamide]
- IC50: 1.8 µM

SMILES: O=C(NC1CCNCC1)C1CCN(C2c3ccc(Cl)cc3CCc3cc(Br)cnc32)CC1 (stereo not shown) [Example 7 Step B, 1-(3-Bromo-8-chloro-6,11-dihydro-5H-benzo[5,6]cyclohepta[1,2-b]pyridin-11-yl)-N-(4-piperidinyl)-4-piperidinecarboxamide]
- inhibition at 0.39 µM (read-out: FPT Inhibition): 8.75%

SMILES: O=C(NCC1CCNCC1)C1CCN(C2c3ccc(Cl)cc3CCc3cc(Br)cnc32)CC1 (stereo not shown) [Example 8 Step B, 1-(3-Bromo-8-chloro-6,11-dihydro-5H-benzo[5,6]cyclohepta[1,2-b]pyridin-11-yl)-N-(4-piperidinylmethyl)-4-piperidinecarboxamide]
- inhibition at 0.38 µM (read-out: FPT Inhibition): 12%

SMILES: NC(=O)NCC1CCN(C(=O)C2CCN(C3c4ccc(Cl)cc4CCc4cc(Br)cnc43)CC2)CC1 (stereo not shown) [Example 9, 1-[1-(3-Bromo-8-chloro-6,11-dihydro-5H-benzo[5,6]cyclohepta[1,2-b]pyridin-11-yl)-4-piperidinylcarbonyl]-4-[(1-aminomethanamido)methyl]piperidine]
- IC50: 0.66 µM

SMILES: O=C(NCc1cccnc1)C1CCCN(C2c3ccc(Cl)cc3CCc3cc(Br)cnc32)C1 (stereo not shown) [Example 10, 1-(8-chloro-3-bromo-5,6-dihydro-11H-benzo[5,6]-cyclohepta[1,2-b]pyridin-11-yl)piperidine-3-(N-3-pyridylmethylamino)carboxamide]
- IC50: 0.21 µM

SMILES: O=C(Nc1cccnc1)C1CCCN(C2c3ccc(Cl)cc3CCc3cc(Br)cnc32)C1 (stereo not shown) [Example 11, 1-(3-bromo-8-chloro-6,11-dihydro-5H-benzo[5,6]cyclohepta [1,2-b]pyridin-11-yl)-N-(3-pyridinyl)-3-piperidinecarboxamide]
- IC50: 0.065 µM

SMILES: O=C(NCc1cccnc1)C1CCCN(C2c3ncc(Br)cc3CCc3cc(Cl)cc(Br)c32)C1 (stereo not shown) [Example 16, 1-(3,10-Dibromo-8-chloro-6,11-dihydro-5H-benzo[5,6]cyclohepta[1,2-b]pyridin-11-yl)-N-(3-pyridinylmethyl)-3-piperidinecarboxamide]
- IC50: 0.027 µM

SMILES: O=C(CC1CCCN(C2c3ccc(Cl)cc3CCc3cc(Br)cnc32)C1)NCc1cccnc1 (stereo not shown) [Example 18, 1-(3-Bromo-8-chloro-6,11-dihydro-5H-benzo[5,6]cyclohepta[1,2-b]pyridin-11-yl)-N-(3-pyridinylmethyl)-3-piperidineacetamide]
- inhibition at 1.1 µM (read-out: FPT Inhibition): 9%
